Starred links: 1 amine or outer side, 2 acyl side, 3 side chain; linkers in the order of their positions; H or OH if unused. Positions of bridges follow the written chain, without caps; N, C: chain ends. Non-standard residues stand in square brackets, D forms with d. Residues, ends and D or L forms follow the SMILES beside them. X1 = O=C(c1cc(CS[*:2])cc(CS[*:3])c1)[*:1]; 2Nal = N[C@@H](Cc1ccc2ccccc2c1)C(=O)O; Mpa = O=C(O)CCS
What was measured:
[1] = In vitro reduction of disulfide bonds by glutathione; assay type: physicochemical; details: 5 mM glutathione, 2 h
[2] = Proteolytic stability in human serum; assay type: in vitro ADME

Structure (SMILES) | reduction of the disulfide bonds [1] | half-life in human serum [2] | half-life ([2]; human serum) [min]
CC(C)C[C@@H]1NC(=O)[C@H](C)NC(=O)[C@@H]2CSSCc3cc(cc(c3)C(=O)N[C@@H](CCCNC(=N)N)C(=O)N[C@@H](CCCNC(=N)N)C(=O)N[C@@H](CCCNC(=N)N)C(=O)N[C@@H](CCCNC(=N)N)C(=O)N[C@@H](Cc3ccc4ccccc4c3)C(=O)N[C@@H](Cc3ccccc3)C(=O)N2)CSSC[C@@H](C(N)=O)NC(=O)[C@H](CCC(N)=O)NC(=O)[C@H](CC(C)C)NC(=O)[C@H](Cc2c[nH]c3ccccc23)NC(=O)[C@H](CO)NC(=O)[C@H](Cc2c[nH]c3ccccc23)NC(=O)[C@H](CC(=O)O)NC1=O [Peptide 4] (RRRR[2Nal]FCALDWSWLQC-NH2; linker N-7-16 via X1) | completely reduced | ~ 10 h | 
CC(C)C[C@H](NC(=O)[C@H](C)NC(=O)[C@@H]1CSSCCC(=O)N[C@@H](CCCNC(=N)N)C(=O)N[C@@H](CCCNC(=N)N)C(=O)N[C@@H](CCCNC(=N)N)C(=O)N[C@@H](CCCNC(=N)N)C(=O)N[C@@H](Cc2ccc3ccccc3c2)C(=O)N[C@@H](Cc2ccccc2)C(=O)N1)C(=O)N[C@@H](CC(=O)O)C(=O)N[C@@H](Cc1c[nH]c2ccccc12)C(=O)N[C@@H](CO)C(=O)N[C@@H](Cc1c[nH]c2ccccc12)C(=O)N[C@@H](CC(C)C)C(=O)N[C@@H](CCC(N)=O)C(=O)N[C@H](C(N)=O)[C@@H](C)O [Peptide 6] ([Mpa]RRRR[2Nal]FCALDWSWLQT-NH2; disulfide 1-8; C-terminus assumed) |  |  | ~30
